For twelve compounds, IC50 results are on record in patent US7541367B2, “3-benzoimidazolyl-pyrazolopyridines useful in treating kinase disorders” (Janssen Pharmaceutica, N.V., priority 2005, dated 2009).

In one assay the target is T1, RET (Homo sapiens, UniProt P07949).
T1 construct: polyhistidine (N)
T1 sequence (P07949 658-1114 limits assumed): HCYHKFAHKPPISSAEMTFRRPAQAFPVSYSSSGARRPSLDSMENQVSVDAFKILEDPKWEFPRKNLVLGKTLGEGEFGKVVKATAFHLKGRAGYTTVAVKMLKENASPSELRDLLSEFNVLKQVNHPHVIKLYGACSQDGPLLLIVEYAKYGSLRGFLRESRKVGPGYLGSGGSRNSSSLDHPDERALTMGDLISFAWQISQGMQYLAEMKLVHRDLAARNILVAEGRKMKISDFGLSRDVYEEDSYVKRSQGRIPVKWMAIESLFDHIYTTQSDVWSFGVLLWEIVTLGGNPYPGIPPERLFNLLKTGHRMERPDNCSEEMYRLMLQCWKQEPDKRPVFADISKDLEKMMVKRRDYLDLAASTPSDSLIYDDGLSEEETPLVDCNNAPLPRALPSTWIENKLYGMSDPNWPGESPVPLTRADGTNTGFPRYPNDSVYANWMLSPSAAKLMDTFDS
Nature of the assay: RET kinase screening assay (33P-ATP FlashPlate).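 Also: biotinylated peptide substrate captured on streptavidin FlashPlate, 33P phosphate transfer read by scintillation counting, 1% DMSO, lower incorporation means inhibition, percent relative to per-plate maximum and minimum signals.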 It is filed as biochemical. Particulars: human RET kinase domain; 10 μM ATP; 1 hr at 30° C.

Another assay deals with HCT-116 colon carcinoma. Nature of the assay: Cell Proliferation Inhibition Assay (14C-thymidine incorporation), HCT-116.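 Also: proliferation measured as methyl 14C-thymidine uptake into new DNA, counted in 96-well scintillating microplates, compared with DMSO-only control wells.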 It is filed as cell-based. To be noted: Homo sapiens, HCT-116, HCT-116 cells.
Assay [1] concerns HeLa cervical adenocarcinoma. Kind of assay: Cell Proliferation Inhibition Assay (14C-thymidine incorporation), HeLa.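 Also: test compound in DMSO added to cells seeded in scintillating 96-well plates, DMSO-only wells as control, uptake of methyl 14C-thymidine into new DNA counted.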 Particulars: Homo sapiens, HeLa, HeLa cells. The format is cell-based.
In the next assay the target is T2, Aurora-A (Mus musculus, UniProt P97477).
T2 construct: polyhistidine (N)
T2 sequence (P97477 1-395): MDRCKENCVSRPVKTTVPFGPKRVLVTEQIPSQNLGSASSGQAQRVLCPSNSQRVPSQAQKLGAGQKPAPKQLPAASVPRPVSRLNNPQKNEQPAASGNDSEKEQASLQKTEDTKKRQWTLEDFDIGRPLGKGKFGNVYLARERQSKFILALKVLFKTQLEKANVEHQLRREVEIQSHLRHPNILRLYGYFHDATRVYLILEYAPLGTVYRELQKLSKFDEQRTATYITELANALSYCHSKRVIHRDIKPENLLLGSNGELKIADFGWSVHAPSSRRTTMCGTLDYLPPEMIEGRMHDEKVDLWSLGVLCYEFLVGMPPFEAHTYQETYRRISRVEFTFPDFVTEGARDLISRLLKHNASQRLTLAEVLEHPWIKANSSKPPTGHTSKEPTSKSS
Kind of assay: Aurora-A kinase screening assay (33P-ATP FlashPlate).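 Also: His-tagged mouse Aurora-A phosphorylating a biotinylated peptide captured on streptavidin plates, read as 33P uptake by scintillation counting, 1% DMSO, inhibition scaled between per-plate maximum and minimum signals.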 It is filed as biochemical. To be noted: 10 μM ATP, 1 hr at 30° C.

Another assay deals with T3, VEGF-R2 (Rattus norvegicus, UniProt O08775).
T3 construct: polyhistidine (N)
Kind of assay: VEGF-R2 kinase screening assay (33P-ATP FlashPlate).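 Also: Read-out is ³³P incorporation from ³³P-γ-ATP into biotinylated peptide substrate captured on streptavidin FlashPlate, counted by scintillation, 1% DMSO final, inhibition scaled between per-plate maximum and minimum signals.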 The format is biochemical. To be noted: rat VEGF-R2 kinase domain; 10 μM ATP; 1 hr at 30° C.

The target in the next assay is T4, HER2 (Homo sapiens, UniProt P04626).
T4 construct: GST (Glutathione-S-Transferase) (N); HIS6 (N); thrombin cleavage site (N); purchased Proqinase, Freiburg, Germany
Nature of the assay: HER2 kinase screening assay (33P-ATP FlashPlate).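 Also: Biotin-poly(GT) 4:1 peptide captured on streptavidin FlashPlate, 33P transfer from γ-ATP read by scintillation counting, lower incorporation means inhibition, 1% DMSO final, 100 µL reaction.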 It is filed as biochemical. Particulars: GST-HIS6 HER-2 aa 679 to 1255; 10 μM ATP; 1 hr at 30° C.

The target of a further assay is T5, CDK1 (Homo sapiens, UniProt P06493).
T5 construct: purchased New England Biolabs, Beverly, Mass; 6020; host or cells: insect cells
Nature of the assay: CDK-1 kinase screening assay (33P-ATP FlashPlate). Particulars: human CDK1 with cyclin B; 10 μM ATP; 1 hr at 30° C. It is filed as biochemical.

The subject of another assay is A375 malignant melanoma. Nature of the assay: Cell Proliferation Inhibition Assay (14C-thymidine incorporation), A375.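 Also: proliferation measured by radiolabelled thymidine uptake into new DNA, counted in scintillating 96-well plates, compound-treated wells compared with DMSO-only control wells.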 Particulars: Homo sapiens, A-375, A375 cells. It is filed as cell-based.

T4 sequence (P04626 679-1255): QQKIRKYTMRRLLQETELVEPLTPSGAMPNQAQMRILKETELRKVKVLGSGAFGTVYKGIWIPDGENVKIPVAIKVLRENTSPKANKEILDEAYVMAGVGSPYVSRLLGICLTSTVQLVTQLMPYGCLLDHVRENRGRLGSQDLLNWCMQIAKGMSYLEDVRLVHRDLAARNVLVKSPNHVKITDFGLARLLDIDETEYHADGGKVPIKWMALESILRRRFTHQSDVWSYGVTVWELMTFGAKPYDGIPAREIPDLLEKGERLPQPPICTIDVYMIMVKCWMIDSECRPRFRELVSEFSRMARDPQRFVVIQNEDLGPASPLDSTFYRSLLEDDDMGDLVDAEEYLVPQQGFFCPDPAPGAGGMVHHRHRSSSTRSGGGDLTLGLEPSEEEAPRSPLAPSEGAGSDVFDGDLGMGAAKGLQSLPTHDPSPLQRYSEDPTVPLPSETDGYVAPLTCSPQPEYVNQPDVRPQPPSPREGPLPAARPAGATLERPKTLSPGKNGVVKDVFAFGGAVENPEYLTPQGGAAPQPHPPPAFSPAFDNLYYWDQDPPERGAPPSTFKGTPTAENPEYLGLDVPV
T3 sequence (O08775 786-1343): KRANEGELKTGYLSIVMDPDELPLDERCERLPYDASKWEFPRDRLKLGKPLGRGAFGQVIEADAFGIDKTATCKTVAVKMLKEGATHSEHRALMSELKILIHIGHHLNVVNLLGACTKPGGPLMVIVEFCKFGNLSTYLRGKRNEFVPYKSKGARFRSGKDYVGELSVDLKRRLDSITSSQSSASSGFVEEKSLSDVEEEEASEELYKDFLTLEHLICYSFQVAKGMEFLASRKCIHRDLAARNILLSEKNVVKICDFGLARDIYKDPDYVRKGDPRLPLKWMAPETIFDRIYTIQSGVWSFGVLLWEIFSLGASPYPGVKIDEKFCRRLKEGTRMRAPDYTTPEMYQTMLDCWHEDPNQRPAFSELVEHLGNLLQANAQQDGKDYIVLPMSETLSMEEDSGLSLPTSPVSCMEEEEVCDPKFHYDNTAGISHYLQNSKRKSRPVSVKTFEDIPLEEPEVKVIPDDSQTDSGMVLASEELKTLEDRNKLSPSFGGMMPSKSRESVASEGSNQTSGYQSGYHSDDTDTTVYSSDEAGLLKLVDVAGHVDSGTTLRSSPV
T5 sequence (P06493 whole entry): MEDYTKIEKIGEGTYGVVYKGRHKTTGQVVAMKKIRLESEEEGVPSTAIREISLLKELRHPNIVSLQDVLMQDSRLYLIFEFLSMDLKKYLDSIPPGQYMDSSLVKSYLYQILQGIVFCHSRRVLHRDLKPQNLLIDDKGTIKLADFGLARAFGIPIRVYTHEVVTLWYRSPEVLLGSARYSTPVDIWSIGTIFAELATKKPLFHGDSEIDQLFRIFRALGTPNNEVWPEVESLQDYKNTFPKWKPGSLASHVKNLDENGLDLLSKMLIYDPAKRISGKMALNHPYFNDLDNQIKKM
T5 sequence (P14635 whole entry partner): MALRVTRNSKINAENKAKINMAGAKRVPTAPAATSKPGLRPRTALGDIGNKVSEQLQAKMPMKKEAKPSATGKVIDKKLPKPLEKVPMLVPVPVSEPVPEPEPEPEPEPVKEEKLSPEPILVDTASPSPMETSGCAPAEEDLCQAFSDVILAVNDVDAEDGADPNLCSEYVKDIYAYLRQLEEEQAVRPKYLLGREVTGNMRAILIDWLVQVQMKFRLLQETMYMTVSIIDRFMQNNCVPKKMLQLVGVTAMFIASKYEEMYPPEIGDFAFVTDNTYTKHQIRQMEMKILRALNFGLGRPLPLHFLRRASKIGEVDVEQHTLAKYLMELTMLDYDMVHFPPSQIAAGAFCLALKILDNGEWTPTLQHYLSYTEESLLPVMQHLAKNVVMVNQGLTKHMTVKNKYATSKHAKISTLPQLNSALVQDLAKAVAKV

For `O=C(c1cccc2[nH]c(-c3n[nH]c4ncc(-c5cncc6ccccc56)cc34)nc12)N1CCOCC1` [Cpd 24, [2-(5-isoquinolin-4-yl-1H-pyrazolo[3,4-b]pyridin-3-yl)-1H-benzoimidazole-4-yl]-morpholin-4-yl-methanone], the IC50 was ~100000 nM at RET; 743 nM with HCT-116 colon carcinoma; 460 nM in assay [1]; 2790 nM on Aurora-A; 4620 nM at VEGF-R2; > 10000 nM against HER2. Also, the IC50 against CDK1 is 42 nM; with A375 malignant melanoma, 490 nM.

For the compound `CN(C)Cc1cncc(-c2cnc3[nH]nc(-c4nc5cc(N6CCN(C)CC6)ccc5[nH]4)c3c2)c1` [Cpd 88, dimethyl-(5-{3-[5-(4-methyl-piperazin-1-yl)-1H-benzoimidazol-2-yl]-1H-pyrazolo[3,4-b]pyridin-5-yl}-pyridin-3-ylmethyl)-amine], the IC50 against RET was 104 nM; with HCT-116 colon carcinoma it was 431 nM; in assay [1] it was 861 nM; against Aurora-A, 281 nM; on VEGF-R2, 120 nM; against HER2, 1920 nM. The IC50 against CDK1 stood at 6.14 nM; with A375 malignant melanoma it was 885 nM.

For the compound `O=C(c1cccc2[nH]c(-c3n[nH]c4ncc(-c5cncc6ccccc56)cc34)nc12)N1CCCCC1` [Cpd 22, [2-(5-isoquinolin-4-yl-1H-pyrazolo[3,4-b]pyridin-3-yl)-1H-benzoimidazol-4-yl]-piperidin-1-yl-methanone], the half-maximal inhibitory concentration (IC50) at RET was ~100000 nM; with HCT-116 colon carcinoma, 554 nM; in assay [1], 594 nM; at Aurora-A, 1990 nM; at VEGF-R2 it was 2120 nM; on HER2 it was > 10000 nM. Also, the results for the IC50 on CDK1 and in the assay with A375 malignant melanoma were 137 nM and 188 nM, respectively.

With `CN1CCC(NC(=O)c2cccc3[nH]c(-c4n[nH]c5ncc(-c6cncc7ccccc67)cc45)nc23)CC1` [Cpd 28, 2-(5-isoquinolin-4-yl-1H-pyrazolo[3,4-b]pyridin-3-yl)-1H-benzoimidazole-4-carboxylic acid (1-methyl-piperidin-4-yl)-amide], the IC50 against RET is > 100000 nM; with HCT-116 colon carcinoma, 4990 nM; in assay [1] it was 26900 nM; against Aurora-A, > 10000 nM; on VEGF-R2, > 100000 nM; against HER2, > 10000 nM. Also, the IC50 was found to be 724 nM against CDK1 and 5620 nM in the assay on A375 malignant melanoma.

On to `COCc1cccc2[nH]c(-c3n[nH]c4ncc(-c5cnccc5C)cc34)nc12` [Cpd 57, 3-(4-methoxymethyl-1H-benzoimidazol-2-yl)-5-(4-methyl-pyridin-3-yl)-1H-pyrazolo[3,4-b]pyridine], for which the IC50 at RET was > 10000 nM; with HCT-116 colon carcinoma, 68.7 nM; in assay [1] it was 685 nM; against Aurora-A, > 1000 nM; against VEGF-R2, > 1000 nM; against HER2 it was > 100000 nM. Further, the IC50 against CDK1 is 66.3 nM; in the assay on A375 malignant melanoma, 119 nM.

With `O=C(O)c1cccc2[nH]c(-c3n[nH]c4ncc(-c5cncc6ccccc56)cc34)nc12` [Cpd 17, 2-(5-isoquinolin-4-yl-1H-pyrazolo[3,4-b]pyridin-3-yl)-1H-benzoimidazole-4-carboxylic acid], the IC50 is > 100000 nM on RET; > 10000 nM in the assay with HCT-116 colon carcinoma; > 10000 nM in assay [1]; > 10000 nM against Aurora-A; > 10000 nM on VEGF-R2; > 100000 nM at HER2. In addition, the IC50 on CDK1 was 541 nM; in the assay with A375 malignant melanoma, > 10000 nM.

Take `CN1CCN(C(=O)c2cccc3[nH]c(-c4n[nH]c5ncc(-c6cncc7ccccc67)cc45)nc23)CC1` [Cpd 23, [2-(5-isoquinolin-4-yl-1H-pyrazolo[3,4-b]pyridin-3-yl)-1H-benzoimidazole-4-yl]-(4-methyl-piperazin-1-yl)-methanone]: the IC50 on RET was > 100000 nM; in the assay on HCT-116 colon carcinoma, 3170 nM; in assay [1] it was 6580 nM; at Aurora-A, 10900 nM; on VEGF-R2, 6930 nM; against HER2 it was > 10000 nM. For the same compound, the IC50 on CDK1 was found to be 1630 nM; with A375 malignant melanoma it was 2760 nM.

For `CN(C)CCN(C)C(=O)c1cccc2[nH]c(-c3n[nH]c4ncc(-c5cncc6ccccc56)cc34)nc12` [Cpd 26, 2-(5-isoquinolin-4-yl-1H-pyrazolo[3,4-b]pyridin-3-yl)-1H-benzoimidazole-4-carboxylic acid (2-dimethylamino-ethyl)-methyl-amide], the IC50 at RET was ~100000 nM; with HCT-116 colon carcinoma, 890 nM; in assay [1] it was 1160 nM; against Aurora-A, 12100 nM; at VEGF-R2, > 10000 nM; against HER2, > 10000 nM. In addition, the results for the IC50 against CDK1 and in the assay with A375 malignant melanoma were 244 nM and 1210 nM, respectively.

Turning to `CNCc1cncc(-c2cnc3[nH]nc(-c4nc5c(COC)cccc5[nH]4)c3c2)c1C` [Cpd 62, {5-[3-(4-methoxymethyl-1H-benzoimidazol-2-yl)-1H-pyrazolo[3,4-b]pyridin-5-yl]-4-methyl-pyridin-3-ylmethyl}-methyl-amine], the IC50 is ~10000 nM against RET; 229 nM in the assay with HCT-116 colon carcinoma; 1180 nM in assay [1]; 1750 nM on Aurora-A; 2790 nM on VEGF-R2; > 100000 nM against HER2. Further, the values for the IC50 at CDK1 and with A375 malignant melanoma were 68.1 nM and 62.3 nM, respectively.

In the case of `COCc1cccc2[nH]c(-c3n[nH]c4ncc(-c5cncc6ccccc56)cc34)nc12` [Cpd 4, 4-[3-(4-methoxymethyl-1H-benzoimidazol-2-yl)-1H-pyrazolo[3,4-b]pyridin-5-yl]-isoquinoline], the IC50 is > 10000 nM at RET; 10.1 nM with HCT-116 colon carcinoma; 14.8 nM in assay [1]; 324 nM at Aurora-A; 461 nM on VEGF-R2; 85.1 nM at HER2. Also, the IC50 came to 5.61 nM at CDK1 and 10.1 nM in the assay with A375 malignant melanoma.

For `CCCCNCc1cncc(-c2cnc3[nH]nc(-c4nc5c(COC)cccc5[nH]4)c3c2)c1` [Cpd 79, butyl-{5-[3-(4-methoxymethyl-1H-benzoimidazol-2-yl)-1H-pyrazolo[3,4-b]pyridin-5-yl]-pyridin-3-ylmethyl}-amine], the IC50 on RET was > 10000 nM; in the assay with HCT-116 colon carcinoma, 218 nM; in assay [1] it was 417 nM; against Aurora-A, 2450 nM; against VEGF-R2, ~1000 nM; against HER2, > 10000 nM. For the same compound, the IC50 against CDK1 was 6.81 nM; with A375 malignant melanoma, 343 nM.

In the case of `COCc1cccc2[nH]c(-c3n[nH]c4ncc(-c5cncc(CN(C)C)c5C)cc34)nc12` [Cpd 61, {5-[3-(4-methoxymethyl-1H-benzoimidazol-2-yl)-1H-pyrazolo[3,4-b]pyridin-5-yl]-4-methyl-pyridin-3-ylmethyl}-dimethyl-amine], the concentration for half-maximal inhibition (IC50) against RET is > 10000 nM; in the assay with HCT-116 colon carcinoma, 99.2 nM; in assay [1], 1830 nM; against Aurora-A, 321 nM; against VEGF-R2, 4110 nM; at HER2 it was > 10000 nM. In addition, the figures for the IC50 at CDK1 and in the assay on A375 malignant melanoma were 283 nM and 219 nM, respectively.
